Experimental data from the supplement of paper PMC10883282.

Assays:
Experiment in all cases: relative viability vs DMSO control (72 h) (fraction); higher = more viable cells
[1] = tested on: SW872
Method in brief: (§1)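 Sarcoma cell lines were seeded in 384-well plates at densities set to reach 80–90% confluence. After 24 h, 2.5 µl of serially diluted compound was added (source plates 10 mM to 0.0002 mM), and plates were held 72 h at 37 °C, 5% CO2, with 0.1% DMSO vehicle and a 5 µM positive control. Relative viability came from ATPLite readings as percent growth, averaged over up to triplicate wells. Data were rescaled so full viability equals 1 and none equals 0.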

[2] = tested on: SW684
Method in brief: as §1

[3] = tested on: SW982
Method in brief: as §1

[4] = tested on: A204
Method in brief: as §1

[5] = tested on: KHOS-NP
Method in brief: as §1

[6] = tested on: RD-ES
Method in brief: as §1

[7] = tested on: SK-LMS-1
Method in brief: as §1

[8] = tested on: G401
Method in brief: as §1

[9] = tested on: VA-ES-BJ
Method in brief: as §1

[10] = tested on: SK-ES-1
Method in brief: as §1

[11] = tested on: HS729
Method in brief: as §1

[12] = tested on: HT1080
Method in brief: as §1

CNC(=O)c1c(C)oc2cc(Oc3ncnc4cc(OC)c(OC)cc34)ccc12 [Fruquintinib]
Conditions | relative viability
[1], 0.00017 µM | 1.09
[1], 0.00051 µM | 1.06
[1], 0.00152 µM | 1.03
[1], 0.00457 µM | 1.04
[1], 0.01372 µM | 1.03
[1], 0.04115 µM | 0.988
[1], 0.1235 µM | 1
[1], 0.3704 µM | 0.963
[1], 1.111 µM | 0.9736
[1], 3.333 µM | 0.893
[1], 10 µM | 0.852
[2], 0.00017 µM | 1.15
[2], 0.00051 µM | 1.12
[2], 0.00152 µM | 1.16
[2], 0.00457 µM | 1.18
[2], 0.01372 µM | 1.15
[2], 0.04115 µM | 1.15
[2], 0.1235 µM | 1.1
[2], 0.3704 µM | 1.13
[2], 1.111 µM | 1.12
[2], 3.333 µM | 1.09
[2], 10 µM | 1.07
[3], 0.00017 µM | 1.03
[3], 0.00051 µM | 1.03
[3], 0.00152 µM | 1.04
[3], 0.00457 µM | 1.02
[3], 0.01372 µM | 1.03
[3], 0.04115 µM | 1.04
[3], 0.1235 µM | 1.048
[3], 0.3704 µM | 1.04
[3], 1.111 µM | 1.04
[3], 3.333 µM | 0.992
[3], 10 µM | 0.925
[4], 0.00017 µM | 1.06
[4], 0.00051 µM | 1.09
[4], 0.00152 µM | 1.05
[4], 0.00457 µM | 1.05
[4], 0.01372 µM | 1.06
[4], 0.04115 µM | 0.999
[4], 0.1235 µM | 0.967
[4], 0.3704 µM | 0.73
[4], 1.111 µM | 0.409
[4], 3.333 µM | 0.32
[4], 10 µM | 0.258
[5], 0.00017 µM | 1.114
[5], 0.00051 µM | 1.11
[5], 0.00152 µM | 1.11
[5], 0.00457 µM | 1.09
[5], 0.01372 µM | 1.11
[5], 0.04115 µM | 1.099
[5], 0.1235 µM | 1.08
[5], 0.3704 µM | 1.07
[5], 1.111 µM | 1.07
[5], 3.333 µM | 1.03
[5], 10 µM | 1.027
[6], 0.00017 µM | 0.93
[6], 0.00051 µM | 0.979
[6], 0.00152 µM | 0.968
[6], 0.00457 µM | 0.952
[6], 0.01372 µM | 0.971
[6], 0.04115 µM | 0.935
[6], 0.1235 µM | 0.968
[6], 0.3704 µM | 0.934
[6], 1.111 µM | 0.945
[6], 3.333 µM | 0.917
[6], 10 µM | 0.928
[7], 0.00017 µM | 1.11
[7], 0.00051 µM | 1.1
[7], 0.00152 µM | 1.106
[7], 0.00457 µM | 1.1
[7], 0.01372 µM | 1.1
[7], 0.04115 µM | 1.07
[7], 0.1235 µM | 1.07
[7], 0.3704 µM | 1.04
[7], 1.111 µM | 1.01
[7], 3.333 µM | 0.976
[7], 10 µM | 0.991
[8], 0.00017 µM | 0.988
[8], 0.00051 µM | 1.02
[8], 0.00152 µM | 1.02
[8], 0.00457 µM | 0.986
[8], 0.01372 µM | 1.03
[8], 0.04115 µM | 1.01
[8], 0.1235 µM | 0.965
[8], 0.3704 µM | 0.953
[8], 1.111 µM | 0.9
[8], 3.333 µM | 0.698
[8], 10 µM | 0.57
[9], 0.00017 µM | 1.05
[9], 0.00051 µM | 1.02
[9], 0.00152 µM | 1.03
[9], 0.00457 µM | 1
[9], 0.01372 µM | 0.997
[9], 0.04115 µM | 1.01
[9], 0.1235 µM | 0.996
[9], 0.3704 µM | 1.03
[9], 1.111 µM | 0.995
[9], 3.333 µM | 0.953
[9], 10 µM | 0.936
[10], 0.00017 µM | 1.01
[10], 0.00051 µM | 1.07
[10], 0.00152 µM | 1.04
[10], 0.00457 µM | 1.07
[10], 0.01372 µM | 1.06
[10], 0.04115 µM | 1.1
[10], 0.1235 µM | 1.05
[10], 0.3704 µM | 1
[10], 1.111 µM | 0.971
[10], 3.333 µM | 0.951
[10], 10 µM | 0.926
[11], 0.00017 µM | 1.09
[11], 0.00051 µM | 1
[11], 0.00152 µM | 0.959
[11], 0.00457 µM | 0.961
[11], 0.01372 µM | 0.908
[11], 0.04115 µM | 0.927
[11], 0.1235 µM | 0.896
[11], 0.3704 µM | 0.852
[11], 1.111 µM | 0.794
[11], 3.333 µM | 0.717
[11], 10 µM | 0.657
[12], 0.00017 µM | 1.08
[12], 0.00051 µM | 1.06
[12], 0.00152 µM | 1.058
[12], 0.00457 µM | 1.04
[12], 0.01372 µM | 1.07
[12], 0.04115 µM | 1.04
[12], 0.1235 µM | 1.03
[12], 0.3704 µM | 1.04
[12], 1.111 µM | 1.054
[12], 3.333 µM | 1.02
[12], 10 µM | 1.01

C#Cc1cccc(Nc2ncnc3cc4c(cc23)OCCOCCOCCO4)c1 [Icotinib]
Conditions | relative viability
[1], 0.00017 µM | 1.14
[1], 0.00051 µM | 1.14
[1], 0.00152 µM | 1.11
[1], 0.00457 µM | 1.108
[1], 0.01372 µM | 1.11
[1], 0.04115 µM | 1.09
[1], 0.1235 µM | 1.08
[1], 0.3704 µM | 1.07
[1], 1.111 µM | 1.06
[1], 3.333 µM | 1.04
[1], 10 µM | 1.03
[2], 0.00017 µM | 1.172
[2], 0.00051 µM | 1.18
[2], 0.00152 µM | 1.2
[2], 0.00457 µM | 1.19
[2], 0.01372 µM | 1.2
[2], 0.04115 µM | 1.18
[2], 0.1235 µM | 1.18
[2], 0.3704 µM | 1.18
[2], 1.111 µM | 1.17
[2], 3.333 µM | 1.16
[2], 10 µM | 1.13
[3], 0.00017 µM | 1.01
[3], 0.00051 µM | 1.03
[3], 0.00152 µM | 1.04
[3], 0.00457 µM | 1.03
[3], 0.01372 µM | 1.049
[3], 0.04115 µM | 1.06
[3], 0.1235 µM | 1.06
[3], 0.3704 µM | 1.05
[3], 1.111 µM | 0.999
[3], 3.333 µM | 0.9946
[3], 10 µM | 0.977
[4], 0.00017 µM | 1.07
[4], 0.00051 µM | 1.08
[4], 0.00152 µM | 1.11
[4], 0.00457 µM | 1.13
[4], 0.01372 µM | 1.071
[4], 0.04115 µM | 1.12
[4], 0.1235 µM | 1.09
[4], 0.3704 µM | 1.07
[4], 1.111 µM | 0.967
[4], 3.333 µM | 0.947
[4], 10 µM | 0.877
[5], 0.00017 µM | 1.083
[5], 0.00051 µM | 1.09
[5], 0.00152 µM | 1.08
[5], 0.00457 µM | 1.09
[5], 0.01372 µM | 1.09
[5], 0.04115 µM | 1.09
[5], 0.1235 µM | 1.08
[5], 0.3704 µM | 1.09
[5], 1.111 µM | 1.096
[5], 3.333 µM | 1.08
[5], 10 µM | 1.07
[6], 0.00017 µM | 0.983
[6], 0.00051 µM | 0.998
[6], 0.00152 µM | 0.989
[6], 0.00457 µM | 1.01
[6], 0.01372 µM | 0.991
[6], 0.04115 µM | 0.982
[6], 0.1235 µM | 0.976
[6], 0.3704 µM | 0.991
[6], 1.111 µM | 0.973
[6], 3.333 µM | 0.977
[6], 10 µM | 0.959
[7], 0.00017 µM | 1.08
[7], 0.00051 µM | 1.05
[7], 0.00152 µM | 1.07
[7], 0.00457 µM | 1.07
[7], 0.01372 µM | 1.07
[7], 0.04115 µM | 1.06
[7], 0.1235 µM | 1.04
[7], 0.3704 µM | 1.09
[7], 1.111 µM | 1.05
[7], 3.333 µM | 1.033
[7], 10 µM | 0.998
[8], 0.00017 µM | 1.04
[8], 0.00051 µM | 1.05
[8], 0.00152 µM | 1.04
[8], 0.00457 µM | 1.06
[8], 0.01372 µM | 1.05
[8], 0.04115 µM | 1.05
[8], 0.1235 µM | 1.02
[8], 0.3704 µM | 1.04
[8], 1.111 µM | 1.06
[8], 3.333 µM | 1.03
[8], 10 µM | 1.02
[9], 0.00017 µM | 1.09
[9], 0.00051 µM | 1.1
[9], 0.00152 µM | 1.1
[9], 0.00457 µM | 1.06
[9], 0.01372 µM | 1.08
[9], 0.04115 µM | 1.07
[9], 0.1235 µM | 1.08
[9], 0.3704 µM | 1.08
[9], 1.111 µM | 1.05
[9], 3.333 µM | 1.04
[9], 10 µM | 1.01
[10], 0.00017 µM | 1.03
[10], 0.00051 µM | 1.06
[10], 0.00152 µM | 1.06
[10], 0.00457 µM | 1.01
[10], 0.01372 µM | 1.073
[10], 0.04115 µM | 1.08
[10], 0.1235 µM | 1.068
[10], 0.3704 µM | 1.07
[10], 1.111 µM | 0.998
[10], 3.333 µM | 1.01
[10], 10 µM | 0.934
[11], 0.00017 µM | 1.08
[11], 0.00051 µM | 1.091
[11], 0.00152 µM | 1.01
[11], 0.00457 µM | 1
[11], 0.01372 µM | 0.99
[11], 0.04115 µM | 0.99
[11], 0.1235 µM | 0.97
[11], 0.3704 µM | 0.971
[11], 1.111 µM | 0.957
[11], 3.333 µM | 0.892
[11], 10 µM | 0.8227
[12], 0.00017 µM | 1.08
[12], 0.00051 µM | 1.11
[12], 0.00152 µM | 1.09
[12], 0.00457 µM | 1.1
[12], 0.01372 µM | 1.11
[12], 0.04115 µM | 1.08
[12], 0.1235 µM | 1.1
[12], 0.3704 µM | 1.11
[12], 1.111 µM | 1.069
[12], 3.333 µM | 1.08
[12], 10 µM | 1.06
